Among the test systems are MDA-MB-435; SF-268; LOX IMVI; UO-31; Hs-578T; MDA-MB-231; HCC 2998; HCT-116; IGROV-1; OVCAR-3; SF-539; SN12C; NCI/ADR-RES; HOP-92; SF-295; KM12; CAKI-1; 786-0; SNB-75; T47D.
What all share (assay): NCI anticancer screen, dose series, 48 h

Molecules are shown by their SMILES. “And” between values parts separate entries of the source, which are not always exact repeats. Equal values may be shown once.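 Results reflect a 48-hour exposure of cells in 96-well plates to compound at five concentrations. Here, GI50 denotes the concentration required for 50% inhibition of growth.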 The source made the active and inactive calls. Rule as the data show it: active = GI50 up to about 1.1 µM and inactive = higher.

On to `Cc1cc(=O)oc2c(OS(C)(=O)=O)c(OS(C)(=O)=O)ccc12`, for which the GI50 with MDA-MB-435, with SF-268, in the assay with LOX IMVI, in the assay on UO-31, in the assay with Hs-578T and with MDA-MB-231 was > 100 µM (inactive) in each case. Moreover, the GI50 in the assay on HCC 2998, in the assay on HCT-116, with IGROV-1, in the assay with OVCAR-3, in the assay on SF-539 and in the assay with SN12C was > 100 µM (inactive) each time. The GI50 in the assay with NCI/ADR-RES, in the assay with HOP-92, in the assay on SF-295, in the assay with KM12, with CAKI-1 and in the assay with 786-0 was > 100 µM (inactive) throughout.

Regarding `CC(C)=C[C@H]1CCC2(OCCO2)[C@]1(C)CO`, the GI50 in the assay with MDA-MB-435, in the assay on SF-268, in the assay on LOX IMVI, in the assay on UO-31, with SNB-75 and with MDA-MB-231 was > 100 µM (inactive) in each case. The GI50 in the assay with HCC 2998, in the assay on HCT-116, in the assay with IGROV-1, with SF-539, in the assay with SN12C and in the assay on NCI/ADR-RES was > 100 µM (inactive) each time. Moreover, the GI50 in the assay with SF-295, in the assay with KM12, in the assay with CAKI-1, in the assay with T47D and in the assay on 786-0 was > 100 µM (inactive) each time.

With `Oc1ccc(Cc2cc(Cc3ccc(O)cc3)cc(Cc3ccc(O)cc3)c2)cc1`, the GI50 in the assay on MDA-MB-435, in the assay on SF-268, in the assay on LOX IMVI, in the assay with UO-31, with SNB-75 and in the assay on Hs-578T was > 50 µM (inactive) each time. Also, the GI50 with MDA-MB-231, in the assay on HCC 2998, in the assay with HCT-116, with IGROV-1, with OVCAR-3 and in the assay on SF-539 was > 50 µM (inactive) in each case. In addition, the GI50 in the assay on SN12C, in the assay on NCI/ADR-RES, with SF-295, in the assay with KM12 and in the assay on 786-0 was > 50 µM (inactive) throughout.

Take `Cn1c(=O)oc2nc(-c3ccccc3)cc(C(F)(F)F)c21`: the GI50 is 15.9 µM (inactive) with MDA-MB-435; > 100 µM (inactive) with SF-268; > 100 µM (inactive) with UO-31; > 100 µM (inactive) with SNB-75; > 100 µM (inactive) in the assay on MDA-MB-231; > 100 µM (inactive) in the assay with HCC 2998. In addition, the GI50 is 9.33 µM (inactive) with HCT-116; > 100 µM (inactive) in the assay with IGROV-1; 32.8 µM (inactive) in the assay on OVCAR-3; 5.3 µM (inactive) in the assay on SF-539; 5.71 µM (inactive) in the assay on SN12C; 58.3 µM (inactive) in the assay with NCI/ADR-RES. In addition, the GI50 in the assay on HOP-92 was 35.7 µM (inactive); with SF-295, > 100 µM (inactive); in the assay with KM12, 9.93 µM (inactive); in the assay with CAKI-1, > 100 µM (inactive); in the assay on T47D, > 100 µM (inactive); in the assay on 786-0 it was > 100 µM (inactive).

On to `C=C/C(C)=C\CC1[C@](C)(O)CC[C@H]2C(C)(C)C(O)CC[C@]12C` (stereo partly drawn), for which the GI50 in the assay with MDA-MB-435, in the assay on SF-268, in the assay with LOX IMVI, with UO-31, with SNB-75 and with Hs-578T was > 100 µM (inactive) throughout. For the same compound, the GI50 with MDA-MB-231 was > 100 µM (inactive); in the assay with HCT-116, 54.8 µM (inactive); with IGROV-1, > 100 µM (inactive); with OVCAR-3, 92.3 µM (inactive); with SF-539, > 100 µM (inactive); with SN12C, > 100 µM (inactive). The GI50 in the assay on NCI/ADR-RES, in the assay with HOP-92, with SF-295, in the assay on KM12, in the assay on CAKI-1 and in the assay with 786-0 was > 100 µM (inactive) in each case.

In the case of `CC(CO)C1C[C@H](O)[C@@]2(C)CC(=O)C=C(CO)[C@@H]2C1` (stereo partly drawn), the GI50 with MDA-MB-435, in the assay with SF-268, with LOX IMVI, in the assay on UO-31, in the assay on SNB-75 and in the assay with MDA-MB-231 was > 100 µM (inactive) in each case. The GI50 with HCC 2998, in the assay on HCT-116, in the assay with IGROV-1, in the assay on OVCAR-3, in the assay on SF-539 and in the assay on SN12C was > 100 µM (inactive) in each case. The GI50 with NCI/ADR-RES, in the assay on HOP-92, in the assay on SF-295, with KM12, in the assay with CAKI-1 and in the assay on T47D was > 100 µM (inactive) throughout. Besides, the GI50 with 786-0 is > 100 µM (inactive).

As for `Cc1c(/C=N/NC(=S)N2CCCCC2)c(=O)n(-c2ccccc2)n1C`, the GI50 in the assay with MDA-MB-435 was > 100 µM (inactive); with SF-268 it was 29.5 µM (inactive); with LOX IMVI it was 70.5 µM (inactive); with UO-31, 42.4 µM (inactive); with SNB-75, > 100 µM (inactive); with Hs-578T, 39.3 µM (inactive). The GI50 in the assay with MDA-MB-231 was > 100 µM (inactive); in the assay on HCC 2998, 75 µM (inactive); in the assay on HCT-116, 57.8 µM (inactive); with IGROV-1, > 100 µM (inactive); in the assay with OVCAR-3 it was 48.4 µM (inactive); in the assay with SF-539, > 100 µM (inactive). In addition, the GI50 was 28.9 µM (inactive) in the assay with NCI/ADR-RES; > 100 µM (inactive) with HOP-92; 40.7 µM (inactive) in the assay with SF-295; 97.1 µM (inactive) in the assay with KM12; 77.1 µM (inactive) with CAKI-1; 73.5 µM (inactive) in the assay on 786-0.

Consider `CC(=O)OCC1OC(n2c(-c3ccccc3)c(C(C)=O)c(-c3cccc4ccccc34)c(C#N)c2=S)C(OC(C)=O)C(OC(C)=O)C1OC(C)=O` (stereo not drawn), for which the GI50 with MDA-MB-435 is > 100 µM (inactive); in the assay on SF-268 it was > 100 µM (inactive); with LOX IMVI, > 100 µM (inactive); in the assay on UO-31, < 0.01 µM (active); in the assay with MDA-MB-231, > 100 µM (inactive) and 54.1 µM (inactive); in the assay with HCC 2998, > 100 µM (inactive). For the same compound, the GI50 with HCT-116, with IGROV-1, in the assay with OVCAR-3, in the assay with SF-539, with SN12C and with NCI/ADR-RES was > 100 µM (inactive) in each case. Also, the GI50 with SF-295, with KM12, in the assay on T47D and in the assay on 786-0 was > 100 µM (inactive) throughout.

Turning to `N#Cc1c(Cl)c(C=O)c(=O)n2c1[nH]c1ccccc12`, the GI50 is 33.7 µM (inactive) in the assay on MDA-MB-435; 38.6 µM (inactive) with SF-268; 33.7 µM (inactive) with LOX IMVI; 46.2 µM (inactive) in the assay on UO-31; 42.1 µM (inactive) in the assay on SNB-75; 45.1 µM (inactive) with Hs-578T. In addition, the GI50 with MDA-MB-231 was 31.8 µM (inactive); with HCC 2998, > 100 µM (inactive); with HCT-116 it was 29.8 µM (inactive); in the assay with IGROV-1, > 100 µM (inactive); with OVCAR-3, 20.1 µM (inactive); with SF-539, 35.9 µM (inactive). Also, the GI50 in the assay on SN12C was 61.8 µM (inactive); with NCI/ADR-RES, 28.3 µM (inactive); in the assay with HOP-92, 24.2 µM (inactive); in the assay on SF-295, 35.9 µM (inactive); in the assay on KM12, 47.3 µM (inactive); in the assay on CAKI-1, 40.3 µM (inactive). The GI50 with 786-0 is 55.7 µM (inactive).

As for `NC(Cc1ccc(OCc2ccccc2)cn1)C(=O)OCc1ccccc1` (stereo not drawn), the GI50 is > 100 µM (inactive) with MDA-MB-435; > 100 µM (inactive) in the assay with LOX IMVI; > 100 µM (inactive) in the assay with UO-31; > 100 µM (inactive) in the assay on Hs-578T; > 100 µM (inactive) in the assay on MDA-MB-231; 52.4 µM (inactive) in the assay with HCC 2998. Moreover, the GI50 in the assay with HCT-116, with IGROV-1, in the assay on OVCAR-3, in the assay on SF-539, in the assay on SN12C and in the assay on NCI/ADR-RES was > 100 µM (inactive) in each case. Also, the GI50 in the assay with HOP-92, in the assay on SF-295, in the assay with KM12, in the assay with CAKI-1 and in the assay on 786-0 was > 100 µM (inactive) in each case.

On to `O=C1c2ccccc2C(=O)N1NC1=NCCN1`, for which the GI50 in the assay with MDA-MB-435, in the assay with SF-268, with LOX IMVI, in the assay with MDA-MB-231, in the assay on HCC 2998 and in the assay with HCT-116 was > 100 µM (inactive) in each case. For the same compound, the GI50 in the assay with IGROV-1, in the assay with OVCAR-3, in the assay on SF-539, in the assay on SN12C, in the assay on NCI/ADR-RES and in the assay on SF-295 was > 100 µM (inactive) throughout. Also, the GI50 in the assay on KM12, with CAKI-1, in the assay on T47D and in the assay with 786-0 was > 100 µM (inactive) each time.
